Data reported in patent US5442111A, “3,5-di-tetriary-4-butyl-4-hydroxyphenyloxy- or tioalkylene N-hydroxyamides, N-hydroxythioamides, N-hydroxyureas, and N-hydroxythioureas as 5-lipoxygenase inhibitors” (Warner-Lambert Company, priority 1991, dated 1995).

Test system: 5-lipoxygenase
Test: ARBL whole cell 5-lipoxygenase assay (LTB4 formation in RBL-1 cells stimulated with calcium ionophore A23187, RIA)
Format: cell-based
Conditions: @ 10^-6 (concentration unit not given); rat RBL-1 whole cells, A23187 5 μM, 10 min preincubation
Method: ARBL WHOLE CELL 5-LIPOXYGENASE ASSAY
The rat basophilic leukemia cell line (RBL-1) was obtained from the American Type Culture Collection (Rockville, Md.).
A radioimmunoassay (RIA) kit of LTB was obtained from Amersham (Arlington Heights, Ill.) and Seragen (Boston, Mass.), respectively.
RBL-1 cells are grown in suspension culture in Eagle's minimum essential medium supplemented with 12% fetal bovine serum at 37° C. in an incubator supplied with air-5% carbon dioxide. Cells are harvested by centrifugation. They are washed with cold phosphate buffered saline pH 7.4 (PBS; NaCl, 7.1 g; NaHPO, 1.15 g; KHPO, 0.2 g; and KCl, 0.2 g/l). Cells are finally suspended in PBS containing 1.0 mM calcium at a density of […] cells/ml. Cells are incubated with and without test agent (in DMSO) (1% DMSO is without effect on arachidonic acid metabolism) for ten minutes at room temperature. Calcium ionophore A23187 (5 μM) is added and cells are incubated for seven minutes at 37° C. The reaction is stopped by chilling the tubes on ice for ten minutes. Cells are separated by centrifugation and the supernatant is stored at -20°. Aliquots (100 μl) are analyzed for LTB using the radioimmunoassay kit as provided by the supplier.
The following table contains biochemical data obtained from this whole cell assay as a percentage of inhibition.

For CNC(=S)N(O)C(C)CSc1cc(C(C)(C)C)c(O)c(C(C)(C)C)c1 (centres unmarked) [Example 1, N-[2-[[3,5-Bis(1,1-dimethylethyl)-4-hydroxyphenyl]thio]-1-methylethyl]-N-hydroxy-N'-methyl Thiourea], the “ARBL @ 10^-6, % inhibition for LTB4” value was 100%.
For CC(CSc1cc(C(C)(C)C)c(O)c(C(C)(C)C)c1)N(O)C(N)=O (centres unmarked) [Example 2, N-[2-[[3,5-Bis(1,1-dimethylethyl)-4-hydroxyphenyl]thio]-1-methylethyl]-N-hydroxy Urea], the “ARBL @ 10^-6, % inhibition for LTB4” value was 100%.
